Experimental data: BindingDB's records for doi:10.1021/cc060110n (University of Mississippi, 2007)

Key:
[1] = target: L-lactate dehydrogenase (Plasmodium falciparum, UniProt B9UDZ5); assay: Enzyme Assay
Description: (§1) Enzyme assay using recombinant pfLDH and mLDH (bovine heart).

[2] = target: L-lactate dehydrogenase B chain (Bos taurus, UniProt Q5E9B1); assay: Enzyme Assay
Description: as §1

Chain of L-lactate dehydrogenase (B9UDZ5 whole entry): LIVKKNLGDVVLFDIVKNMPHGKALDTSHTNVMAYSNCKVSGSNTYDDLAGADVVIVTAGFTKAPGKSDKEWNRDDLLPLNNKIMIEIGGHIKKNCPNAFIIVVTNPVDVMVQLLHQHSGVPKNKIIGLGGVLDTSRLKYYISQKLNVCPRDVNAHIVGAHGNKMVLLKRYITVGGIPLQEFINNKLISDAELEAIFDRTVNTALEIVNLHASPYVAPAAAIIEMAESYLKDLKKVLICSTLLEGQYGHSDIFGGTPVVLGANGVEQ
Chain of L-lactate dehydrogenase B chain (Q5E9B1 whole entry): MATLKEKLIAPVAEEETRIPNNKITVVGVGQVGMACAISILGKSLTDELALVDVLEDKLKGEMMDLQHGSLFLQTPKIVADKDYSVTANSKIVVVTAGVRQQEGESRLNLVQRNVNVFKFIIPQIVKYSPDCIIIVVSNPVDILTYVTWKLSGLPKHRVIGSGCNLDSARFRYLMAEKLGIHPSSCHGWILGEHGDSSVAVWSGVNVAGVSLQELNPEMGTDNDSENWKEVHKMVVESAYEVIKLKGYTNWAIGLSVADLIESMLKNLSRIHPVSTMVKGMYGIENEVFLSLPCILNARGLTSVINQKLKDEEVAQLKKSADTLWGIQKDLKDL

Row | IC50 [1] [µM] | IC50 [2] [µM] | Compound
1 | > 200 | > 200 | COc1ccccc1NC(=O)C(=O)O [Oxamic Acid/Ester, 6]
2 | 97.9 | 107 | Cc1cccc(N(C(=O)C(=O)O)c2ccccc2)c1 [Oxamic Acid/Ester, 7]
3 | > 200 | 158 | CCc1ccccc1N(Cc1ccccc1)C(=O)C(=O)O [Oxamic Acid/Ester, 8]
4 | 160 | > 200 | CCCCCCCNC(=O)C(=O)O [Oxamic Acid/Ester, 10]
5 | > 200 | > 200 | C=CCN(C)C(=O)C(=O)O [Oxamic Acid/Ester, 11]
6 | > 200 | > 200 | CCCCNC(=O)C(=O)O [Oxamic Acid/Ester, 12]
7 | > 200 | 150 | CCCCCCCCCCCCCCCCNC(=O)C(=O)O [Oxamic Acid/Ester, 14]
8 | > 200 | > 200 | Cc1ccc(CNC(=O)C(=O)O)o1 [Oxamic Acid/Ester, 15]
9 | > 200 | 186 | CN(Cc1ccco1)C(=O)C(=O)O [Oxamic Acid/Ester, 16]
10 | 43 | > 200 | O=C(O)C(=O)NCc1cccc2ccccc12 [Oxamic Acid/Ester, 17]
11 | 59 | 20 | CC(C)c1ccc2c(c1)CCC1[C@](C)(CNC(=O)C(=O)O)CCC[C@]21C (stereo partly drawn) [Oxamic Acid/Ester, 18]
12 | 169 | 46 | O=C(O)C(=O)N1CCN(Cc2ccccc2)CC1 [Oxamic Acid/Ester, 19]
13 | 101 | 59 | O=C(O)C(=O)N1CCC(Cc2ccccc2)CC1 [Oxamic Acid/Ester, 20]
14 | 14 | 25 | COCCNC(=O)C(=O)O [Oxamic Acid/Ester, 21]
15 | > 200 | > 200 | O=C(O)C(=O)N(Cc1ccccc1)c1ccccc1 [Oxamic Acid/Ester, 22]
16 | 47 | 133 | CCCCCCNC(=O)C(=O)O [Oxamic Acid/Ester, 23]
17 | > 200 | > 200 | CN(C(=O)C(=O)O)c1ccccc1 [Oxamic Acid/Ester, 24]
18 | 43 | 31 | COCCCNC(=O)C(=O)O [Oxamic Acid/Ester, 25]

Row | IC50 [1] [µM] | IC50 [2] [µM] | Compound
19 | 88 | > 200 | CCCCCCCCCNC(=O)C(=O)O [Oxamic Acid/Ester, 26]
20 | > 200 | 32 | O=C(O)C(=O)N1CCN(c2ccccc2)CC1 [Oxamic Acid/Ester, 27]
21 | > 200 | > 200 | CCCCCN(C)C(=O)C(=O)O [Oxamic Acid/Ester, 28]
22 | > 200 | > 200 | C=CCN(C(=O)C(=O)O)C1CCCCC1 [Oxamic Acid/Ester, 29]
23 | > 200 | 168 | CN(Cc1ccccc1)C(=O)C(=O)O [Oxamic Acid/Ester, 30]
24 | > 200 | > 200 | CCC(C)NC(=O)C(=O)O (stereo not drawn) [Oxamic Acid/Ester, 31]
25 | > 200 | > 200 | O=C(O)C(=O)N(Cc1ccccc1)Cc1ccccc1 [Oxamic Acid/Ester, 32]
26 | > 200 | 43 | CC1CCCCN1C(=O)C(=O)O (stereo not drawn) [Oxamic Acid/Ester, 33]
27 | 157 | > 200 | CC(C)CCNC(=O)C(=O)O [Oxamic Acid/Ester, 34]
28 | 188 | > 200 | O=C(O)C(=O)NCC1CCCO1 (stereo not drawn) [Oxamic Acid/Ester, 35]
29 | 35 | 90 | O=C(O)C(=O)NCCC(c1ccccc1)c1ccccc1 [Oxamic Acid/Ester, 36]
30 | > 200 | > 200 | CSc1cccc(NC(=O)C(=O)O)c1 [Oxamic Acid/Ester, 37]
31 | 146 | > 200 | CC(NC(=O)C(=O)O)c1cccc2c1CCCC2 (stereo not drawn) [Oxamic Acid/Ester, 38]
32 | > 200 | > 200 | O=C(O)C(=O)NCc1ccco1 [Oxamic Acid/Ester, 39]
33 | > 200 | > 200 | CC(C)CNC(=O)C(=O)O [Oxamic Acid/Ester, 40]
34 | 41 | 88 | O=C(O)C(=O)NCCCCc1ccccc1 [Oxamic Acid/Ester, 41]
35 | 51 | > 200 | O=C(O)C(=O)NCCc1ccc(Br)cc1 [Oxamic Acid/Ester, 42]
36 | 94.4 | – | NC(=O)C(=O)O [carbamoylformic acid]

Row | Compound | IC50 [1] [µM] | IC50 [2] [µM]
37 | Cc1cc2c(C(C)C)c(O)c(O)c(C=O)c2c(O)c1-c1c(C)cc2c(C(C)C)c(O)c(O)c(C=O)c2c1O [Tash 1] | 3.97 | 6.9
